Assay results published in paper PMC12067438 (Journal of Medicinal Chemistry, 2025).

What was measured:
[1] = system: global proteome of H1792 SMARCA4-WT cell line; assay: Quantitative TMT mass spectrometry of global proteome; assay type: cell-based, human; details: 100 nM YDR1 48 h, 20 nM YD54 24 h
YAP1 = YAP1 phosphorylation immunoblot in H322 cells; assay type: cell-based, human; details: H322 SMARCA4 mutant cells, 96 h; 1 µM YDR1, 0.1 µM YD54
[2] = system: H1568 xenograft model (SMARCA4 mutant); assay: H1568 xenograft antitumor efficacy; assay type: in vivo, mouse; details: 40 mg/kg once daily, 13 days
SMARCA2 = SMARCA2 (Homo sapiens, UniProt P51531); assay: SMARCA2 protein levels in xenograft tumors by Western blot; assay type: in vivo; details: H1568 xenograft efficacy study, 40 mg/kg once daily, 13 days
[3] = 21-day tolerability in mice; assay type: in vivo, mouse
[4] = Human liver microsomal stability assay; assay type: in vitro ADME; details: for remaining (T = 60 min): with NADPH
SMARCA4 = SMARCA4 (Mus musculus, UniProt Q3TKT4); assay: PK/PD study: SMARCA4 in spleen by Western blot; assay type: in vivo; details: C57BL/6 and Crbn I391V mice, compared to SMARCA2
[5] = Plasma pharmacokinetics after single oral or intraperitoneal dose; assay type: in vivo, mouse; details: for Oral bioavailability (in words): 25 mg/kg oral, mice
[6] = Mouse liver microsomal stability assay; assay type: in vitro ADME; details: for remaining (T = 60 min): mouse microsomal assay, with NADPH; for CLint scaled at 1 h / half-life at 1 h / microsomal CLint at 1 h: mouse, liver microsomes
ERK = assay: pERK immunoblot in H2030 cells; details: sotorasib 0.5 µM, YDR1 or YD54 1.25 µM, 72 hours (YDR1), 48 hours (YD54)
[7] = system: H2023 xenograft model (SMARCA4 mutant); assay: H2023 xenograft antitumor efficacy; assay type: in vivo, mouse; details: 5 mg/kg once daily, 19 days
[8] = system: HCC515 xenograft model (SMARCA4 mutant); assay: HCC515 xenograft antitumor efficacy; assay type: in vivo, mouse; details: 5 mg/kg once daily, 19 days, 1% Tween 80 formulation
[9] = system: H2030 xenograft model (SMARCA4 mutant); assay: H2030 xenograft antitumor efficacy; assay type: in vivo, mouse; details: 5 mg/kg once daily, 17 days, 1% Tween 80 formulation

Chain of SMARCA4 (Q3TKT4 whole entry): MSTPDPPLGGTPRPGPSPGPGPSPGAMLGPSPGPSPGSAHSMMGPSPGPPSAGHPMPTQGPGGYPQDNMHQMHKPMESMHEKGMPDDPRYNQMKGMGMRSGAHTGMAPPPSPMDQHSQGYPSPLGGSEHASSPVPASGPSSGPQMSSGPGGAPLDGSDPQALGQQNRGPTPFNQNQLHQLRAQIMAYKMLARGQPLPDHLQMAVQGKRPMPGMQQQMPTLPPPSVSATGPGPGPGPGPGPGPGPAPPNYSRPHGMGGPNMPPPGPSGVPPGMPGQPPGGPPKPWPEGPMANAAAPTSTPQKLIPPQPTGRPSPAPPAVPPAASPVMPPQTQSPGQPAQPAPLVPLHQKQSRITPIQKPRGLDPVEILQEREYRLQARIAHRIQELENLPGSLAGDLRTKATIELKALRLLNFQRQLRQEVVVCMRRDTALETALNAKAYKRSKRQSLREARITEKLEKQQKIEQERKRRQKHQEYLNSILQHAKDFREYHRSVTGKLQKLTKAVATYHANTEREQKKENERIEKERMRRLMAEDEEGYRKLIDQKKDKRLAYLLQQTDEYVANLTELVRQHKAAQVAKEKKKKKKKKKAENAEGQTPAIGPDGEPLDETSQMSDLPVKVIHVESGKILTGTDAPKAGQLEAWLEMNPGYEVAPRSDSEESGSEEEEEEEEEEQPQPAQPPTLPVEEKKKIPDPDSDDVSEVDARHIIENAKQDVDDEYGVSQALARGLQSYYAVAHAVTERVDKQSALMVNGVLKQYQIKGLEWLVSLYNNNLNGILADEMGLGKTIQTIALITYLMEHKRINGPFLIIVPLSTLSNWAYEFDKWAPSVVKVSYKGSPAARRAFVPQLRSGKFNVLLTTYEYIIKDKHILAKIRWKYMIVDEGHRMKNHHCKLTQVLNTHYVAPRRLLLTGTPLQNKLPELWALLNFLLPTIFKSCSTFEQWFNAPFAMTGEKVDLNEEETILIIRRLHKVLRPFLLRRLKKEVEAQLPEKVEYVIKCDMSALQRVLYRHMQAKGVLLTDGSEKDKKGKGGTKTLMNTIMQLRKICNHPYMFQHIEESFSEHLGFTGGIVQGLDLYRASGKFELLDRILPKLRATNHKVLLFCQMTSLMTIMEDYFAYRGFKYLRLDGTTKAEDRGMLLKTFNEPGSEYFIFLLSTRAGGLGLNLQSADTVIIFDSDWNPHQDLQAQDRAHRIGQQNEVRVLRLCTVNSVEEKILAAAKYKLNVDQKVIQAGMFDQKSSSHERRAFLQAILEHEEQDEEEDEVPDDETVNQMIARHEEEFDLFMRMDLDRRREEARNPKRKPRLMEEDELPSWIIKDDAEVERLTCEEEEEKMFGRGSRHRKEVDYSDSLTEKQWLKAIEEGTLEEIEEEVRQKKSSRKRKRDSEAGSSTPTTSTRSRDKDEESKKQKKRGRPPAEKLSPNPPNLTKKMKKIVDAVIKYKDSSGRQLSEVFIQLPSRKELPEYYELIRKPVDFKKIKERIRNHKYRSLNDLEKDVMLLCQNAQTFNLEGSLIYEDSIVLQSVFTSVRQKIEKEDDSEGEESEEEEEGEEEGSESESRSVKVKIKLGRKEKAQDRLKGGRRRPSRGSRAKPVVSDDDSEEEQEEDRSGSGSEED
Chain of SMARCA2 (P51531 whole entry): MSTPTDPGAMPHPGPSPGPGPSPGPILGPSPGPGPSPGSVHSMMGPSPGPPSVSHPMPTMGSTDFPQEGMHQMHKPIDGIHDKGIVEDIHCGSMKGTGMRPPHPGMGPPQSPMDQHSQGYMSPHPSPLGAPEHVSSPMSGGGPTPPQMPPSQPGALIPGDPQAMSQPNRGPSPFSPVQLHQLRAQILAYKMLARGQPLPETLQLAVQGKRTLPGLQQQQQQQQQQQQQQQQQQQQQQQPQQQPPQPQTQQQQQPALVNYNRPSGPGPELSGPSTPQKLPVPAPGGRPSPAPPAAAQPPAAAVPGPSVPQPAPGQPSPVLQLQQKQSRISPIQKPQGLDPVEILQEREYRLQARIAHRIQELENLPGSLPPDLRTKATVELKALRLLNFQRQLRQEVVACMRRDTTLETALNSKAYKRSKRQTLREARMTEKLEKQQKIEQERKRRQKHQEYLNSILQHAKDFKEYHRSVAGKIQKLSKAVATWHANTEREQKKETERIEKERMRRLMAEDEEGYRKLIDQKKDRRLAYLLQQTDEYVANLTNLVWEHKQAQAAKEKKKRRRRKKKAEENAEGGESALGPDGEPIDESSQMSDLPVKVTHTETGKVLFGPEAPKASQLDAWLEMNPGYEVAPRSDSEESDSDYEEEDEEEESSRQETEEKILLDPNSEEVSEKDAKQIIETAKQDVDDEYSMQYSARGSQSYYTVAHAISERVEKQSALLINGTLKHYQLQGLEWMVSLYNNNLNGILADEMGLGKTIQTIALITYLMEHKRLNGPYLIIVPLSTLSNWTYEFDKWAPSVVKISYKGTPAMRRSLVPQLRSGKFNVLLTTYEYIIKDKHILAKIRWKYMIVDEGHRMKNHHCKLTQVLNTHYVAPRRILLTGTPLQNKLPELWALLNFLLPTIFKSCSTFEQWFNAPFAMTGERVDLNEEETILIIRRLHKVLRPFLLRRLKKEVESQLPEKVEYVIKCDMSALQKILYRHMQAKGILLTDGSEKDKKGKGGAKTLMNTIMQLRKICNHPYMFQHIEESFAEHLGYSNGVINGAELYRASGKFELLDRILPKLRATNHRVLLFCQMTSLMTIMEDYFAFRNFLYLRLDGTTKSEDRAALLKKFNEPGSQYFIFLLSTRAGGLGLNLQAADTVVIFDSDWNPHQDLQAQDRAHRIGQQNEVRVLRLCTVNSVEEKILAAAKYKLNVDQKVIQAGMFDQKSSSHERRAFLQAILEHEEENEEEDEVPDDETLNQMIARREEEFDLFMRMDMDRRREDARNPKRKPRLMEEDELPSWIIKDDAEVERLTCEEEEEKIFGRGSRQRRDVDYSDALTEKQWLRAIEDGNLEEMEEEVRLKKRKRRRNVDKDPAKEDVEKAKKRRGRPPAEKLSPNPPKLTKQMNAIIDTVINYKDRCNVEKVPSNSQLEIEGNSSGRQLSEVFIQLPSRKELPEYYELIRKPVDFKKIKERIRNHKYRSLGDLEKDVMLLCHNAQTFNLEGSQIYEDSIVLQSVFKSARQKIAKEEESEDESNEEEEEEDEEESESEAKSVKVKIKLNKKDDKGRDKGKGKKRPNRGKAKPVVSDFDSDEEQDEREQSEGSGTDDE

For Nc1nnc(-c2ccccc2O)cc1N1CCN(Cc2ccc(N3CCC(CN4CCN(c5ccc6c(c5)C(=O)N(C5CCC(=O)NC5=O)C6=O)CC4)CC3)c(F)c2)CC1 (stereo not drawn) [YDR1], the “SMARCA4 level in TMT proteomics” value [1] was “minimally altered”, the “Phosphorylation of YAP1 at S109” value (YAP1) was “drastic increase” and the “Phosphorylation of YAP1 at S127” value (YAP1) was “potent increase”. The “Tolerability in efficacy study” value [2] was “well tolerated with no change in body weight”, the “reduction in body weight compared to controls” value (“reduction in body weight” for short) [2] was < 10% and the “degradation of SMARCA2 in tumors” value (SMARCA2) was “about 50%”. For the same compound, the “Body weight and signs of toxicity” value ([3]; daily treatment up to 80 mg/kg for 21 days) was “minimal body weight loss and no obvious signs of toxicity or morbidity”, the Tolerability ([3]; daily treatment with increasing doses up to 80 mg/kg for 21 days) was “well tolerated” and the “Clearance class in human microsomal assays” value ([4]; human microsomal assay) was “slow clearance”. The T1/2 ([4]; human microsomal assay) was 58.024 min, the “remaining (T = 60 min)” value ([4]; human microsomal assay) was 0.4743 and the CLint scaled at 1 h ([4]; human, liver microsomes) was 21.5 mL/min/kg. The microsomal CLint at 1 h ([4]; human, liver microsomes) was 23.9 µL/min/mg, the “degradation of SMARCA4 in spleen” value (SMARCA4) was “only modestly degraded” and the “Oral bioavailability (in words)” value [5] was “robust oral bioavailability”. The half-life ([5]; CD-1, mouse, plasma, oral, 25 mg/kg) was > 1440 min, the “remaining (T = 60 min)” value [6] was 0.4998 and the CLint scaled at 1 h [6] was 91.9 mL/min/kg. For the same compound, the half-life at 1 h [6] was 59.7 min and the microsomal CLint at 1 h [6] was 23.2 µL/min/mg.
For C=CC(=O)N1CCN(c2nc(=O)n(-c3c(C)ccnc3C(C)C)c3nc(-c4c(O)cccc4F)c(F)cc23)[C@@H](C)C1 [sotorasib], the “phosphorylation of ERK” value (ERK) was “robustly reduced phosphorylation of ERK”.
For Nc1nnc(-c2ccccc2O)cc1N1CCN(Cc2ccc(N3CCN(CCOc4cccc5c4C(=O)N(C4CCC(=O)NC4=O)C5=O)CC3)c(F)c2)CC1 (stereo not drawn) [YD54], the “SMARCA4 level in TMT proteomics” value [1] was “minimally altered”, the “Phosphorylation of YAP1 at S109” value (YAP1) was “drastic increase” and the “Phosphorylation of YAP1 at S127” value (YAP1) was “potent increase”. For the same compound, the “Clearance class in human microsomal assays” value ([4]; human microsomal assay) was “moderate clearance”, the “remaining (T = 60 min)” value ([4]; human microsomal assay) was 0.3234 and the CLint scaled at 1 h ([4]; human, liver microsomes) was 35.8 mL/min/kg. For the same compound, the half-life at 1 h ([4]; human, liver microsomes, T1/2, human microsomal assay) was 34.9 min, the “reduction in body weight” value [7] was < 10% and the “reduction in body weight” value [8] was < 20%. For the same compound, the “Oral bioavailability (in words)” value [5] was “orally bioavailable”, the “reduction in body weight” value [9] was < 20% and the “remaining (T = 60 min)” value [6] was 0.414. It also gave a CLint scaled at 1 h [6] of 119 mL/min/kg, a half-life at 1 h [6] of 45.9 min and a microsomal CLint at 1 h [6] of 30.2 µL/min/mg.
